# In PMC8126888 (RSC Medicinal Chemistry, 2020):
# Where two headings read alike, the source gives them in different places.
# Columns and labels:
# [1] = system: Leishmania infantum MHOM/MA(BE)/67/ITMAP263 intracellular amastigotes; test: microbe, parasite or virus in culture; conditions: Macrophage, in Mus musculus
# [2] = system: axenic L. don. amastigotes (MHOM/SD/62/1S-CL2, LdBOB); test: microbe, parasite or virus in culture; conditions: Leishmania donovani
# in vitro [3] = conditions: mouse
# in vitro [4] = conditions: human
# [5] = system: L. donovani MHOM/ET/67/L82 intracellular amastigotes; conditions: read-out: L. donovani MHOM/ET/67/L82 intracellular amastigotes IC50
# [6] = system: primary peritoneal mouse macrophages (PMM); test: Cytotoxicity to PMM (microscopic scoring within susceptibility assay)
# MRC-5SV2 cells = test: Cytotoxicity assay on MRC-5SV2 cells (resazurin)
# [7] = system: Leishmania infantum MHOM/MA(BE)/67/ITMAP263 intracellular amastigotes; conditions: for IC50: read-out: L. infantum MHOM/MA(BE)/67/ITMAP263 intracellular amastigotes IC50; for L. Inf. pIC50: from L. infantum intracellular amastigote IC50
# [8] = system: primary peritoneal mouse macrophages (PMM); conditions: PMM IC50 / L. infantum IC50
# [9] = system: L. donovani MHOM/ET/67/L82 intracellular amastigotes; test: microbe, parasite or virus in culture; conditions: Leishmania donovani, read-out: L. donovani MHOM/ET/67/L82 intracellular amastigotes IC50
# in vitro [10] = conditions: human; remark: listed apart in the source
# [11] = system: Trypanosoma cruzi, Tulahuen CL2, beta-galactosidase strain; test: microbe, parasite or virus in culture; conditions: MRC5, read-out: T. cruzi Tulahuen C4 (LacZ) IC50
# [12] = system: primary peritoneal mouse macrophages (PMM); test: cells; conditions: Macrophage, read-out: PMM IC50
# [13] = system: L. donovani MHOM/SD/62/1SCL2D intracellular amastigotes; test: microbe, parasite or virus in culture; conditions: Leishmania donovani, read-out: L. donovani MHOM/SD/62/1SCL2D intracellular amastigotes IC50
# in vitro [14] = conditions: human, HepG2 cells
# in vitro [15] = conditions: human, THP-1 cells differentiated with PMA
# in vitro [16] = conditions: human, HepG2 cells; remark: listed apart in the source
# in vitro [17] = conditions: PAMPA
# in vitro [18] = conditions: human, HFF-1 cells
# physchem = conditions: HPLC, Ascentis Express RP Amide column, pH 7.4, eLogD, experimental
# [19] = read-out: L. inf. pIC50, intracellular amastigotes in PMM (converted), geometric mean of a minimum of two experiments ± standard error
# [20] = read-out: L. don. pIC50 (converted)
# [21] = s9, pH 7.4, Clint mouse mic., Fig. 2, mouse microsomes (S9 fractions)
# [22] = s9, pH 7.4, Clint human mic., Fig. 2, human microsomes (S9 fractions)
# [23] = read-out: L. Inf. pIC50 (converted)
# [24] = read-out: L. infantum MHOM/MA(BE)/67/ITMAP263 intracellular amastigotes IC50
# [25] = read-out: L. donovani MHOM/SD/62/1SCL2D axenic-cidal amastigotes IC50
# [26] = read-out: L. Inf. pIC50, from L. infantum intracellular amastigote IC50 (converted)
# [27] = read-out: L. infantum MHOM/MA(BE)/67/ITMAP263 intracellular amastigotes IC50, intracellular amastigotes
# [28] = microsomes, pH 7.4, MLM CLint, mouse liver microsomes
# [29] = microsomes, pH 7.4, HLM CLint, human liver microsomes
SMILES,IC50 [5] [µM],IC50 [6] [µM],CC50 (MRC-5SV2 cells) [µM],IC50 [7] [µM],SI (vs PMM) [8],CC50 at 3 days (in vitro [10]) [µM],IC50 [12] [µM],also measured
COc1cc(S(=O)(=O)N(Cc2ccccc2)Cc2ccccc2)c(OC)cc1C [Compound 6],–,–,–,–,–,–,–,"IC50 [1, 19]: 0.501 µM; IC50 [2, 20]: 1.51 µM; microsomal CLint at 0.5 μM (in vitro [3]; [21]): 1080 µL/min/mg; microsomal CLint at 0.5 μM (in vitro [4]; [22]): 828 µL/min/mg"
CCCCCOc1cc(C)c(Cl)cc1S(=O)(=O)NCc1cccs1 [Compound 7],–,–,–,–,–,–,–,"IC50 [1, 19]: 0.447 µM; IC50 [2, 20]: 4.37 µM; microsomal CLint at 0.5 μM (in vitro [3]; [21]): 693 µL/min/mg; microsomal CLint at 0.5 μM (in vitro [4]; [22]): 624 µL/min/mg"
CCCCCOc1cc(C)c(C)cc1S(=O)(=O)NC1CCCC1 [Compound 8],–,–,–,–,–,–,–,"IC50 [1, 19]: 0.589 µM; IC50 [2, 20]: 12 µM; microsomal CLint at 0.5 μM (in vitro [3]; [21]): 416 µL/min/mg; microsomal CLint at 0.5 μM (in vitro [4]; [22]): 567 µL/min/mg"
COc1ccc(S(=O)(=O)N(C)C)cc1NC(=O)Cn1c(=O)oc2ccccc21 [Compound Z15399918],> 32,> 32,> 32,> 32,1,–,–,–
CN(C)S(=O)(=O)c1cccc(NC(=O)CN2CCCc3ccccc32)c1 [Compound Z46159369],> 32,> 32,> 32,> 32,1,–,–,–
CCN(CC)S(=O)(=O)c1ccc(OC)c(NC(=O)CN(C)c2ccccc2)c1 [Compound Z46175669],> 32,> 32,> 32,> 32,1,–,–,–
COc1ccc(S(=O)(=O)N(C)C)cc1NC(=O)Cn1c(C)cc2ccccc21 [Compound Z109062140],> 32,> 32,> 32,> 32,1,–,–,–
COc1ccc(S(=O)(=O)N(C)C)cc1NC(=O)C1Cc2ccccc2O1 (stereo not shown) [Compound Z109062150],> 32,> 32,> 32,> 32,1,–,–,–
CCN(CC)S(=O)(=O)c1ccc(OC)c(NC(=O)CNc2cccc3c2CCCC3)c1 [Compound Z133511332],> 32,> 32,> 32,> 32,1,–,–,–
CCOc1cc(S(=O)(=O)N(Cc2ccccc2)Cc2ccccc2)c(OCC)cc1C [Compound Z1198037468],25.4,> 32,> 32,0.87,37,–,–,L. Inf. pIC50 [7]: 6.06
CCCOc1cc(C)c(C)cc1S(=O)(=O)NC1CCCCC1 [Compound Z1198524053],> 32,> 32,> 32,5.38,6,–,–,L. Inf. pIC50 [7]: 5.27
CCCCCOc1cc(C)c(C)cc1S(=O)(=O)NC1CCCCC1 [Compound Z1201712752],4.32,> 32,26.1,1.04,31,–,–,L. Inf. pIC50 [7]: 5.98
CCc1c(C(=O)N2CCc3ccc(S(=O)(=O)NC)cc32)[nH]c(C)c1C(C)=O [Compound Z1262206860],> 32,> 32,> 32,> 32,1,–,–,–
CCCCOc1cc(C)c(C(C)C)cc1S(=O)(=O)NC1CCCCC1 [Compound Z1346174753],3.39,16,3.74,1.01,16,–,–,L. Inf. pIC50 [7]: 6
COc1cc(S(=O)(=O)N2CCN(Cc3ccccc3)CC2)c(OC)cc1C [Compound Z1532943652],> 32,> 32,> 32,> 32,1,–,–,–
COc1cc(C)c(C)cc1S(=O)(=O)NC1CCCCC1 [Compound Z1542834122],> 32,> 32,> 32,> 32,1,–,–,–

SMILES,IC50 [5] [µM],IC50 [6] [µM],CC50 (MRC-5SV2 cells) [µM],IC50 [7] [µM],SI (vs PMM) [8],CC50 at 3 days (in vitro [10]) [µM],IC50 [12] [µM],also measured
CCCCCOc1cc(C)c(Cl)cc1S(N)(=O)=O [Compound Z1724003560],> 32,> 32,> 32,> 32,1,–,–,–
CCCCCOc1cc(C)c(C)cc1S(=O)(=O)NC1CC(C)(C)NC(C)(C)C1 [Compound Z2035103903],16.2,> 32,10.9,4.76,7,–,–,L. Inf. pIC50 [7]: 5.32
CCN(Cc1ccccc1)S(=O)(=O)c1cc(OC)c(C)cc1OC [Compound Z2235810678],6.35,> 32,> 32,1.08,30,–,–,L. Inf. pIC50 [7]: 5.97
CCCOc1cc(C)c(C)cc1S(=O)(=O)NC1CCCC1 [DNDI0002550535],–,–,–,–,–,> 32,> 32,"IC50 [9]: > 32 µM; IC50 [1, 23]: > 32 µM; IC50 [1, 24]: > 32 µM; IC50 [11]: > 32 µM"
CCCCOc1cc(C)c(Cl)cc1S(=O)(=O)NCc1cccnc1 [DNDI0002558122],–,–,–,–,–,> 32,> 32,"IC50 [9]: 25.4 µM; IC50 [1, 23]: 16.6 µM; IC50 [1, 24]: 16.6 µM"
COc1cc(S(=O)(=O)NCc2ccccc2)c(OC)cc1C [DNDI0002564850],–,–,–,–,–,> 32,> 32,"IC50 [9]: > 32 µM; IC50 [1, 23]: > 32 µM; IC50 [1, 24]: > 32 µM; IC50 [11]: > 32 µM"
CCCCCOc1cc(C)c(Cl)cc1S(=O)(=O)NCc1ccco1 [DNDI0002567970],–,–,–,–,–,11.7,> 32,"IC50 [9]: 4.76 µM; IC50 [13]: 48 µM; IC50 [1, 23]: 1.07 µM; IC50 [1, 24]: 1.08 µM; IC50 [2, 25]: 12 µM; CC50 (in vitro [14]): > 50 µM; CC50 at 120 h (in vitro [15]): > 50 µM"
CCCOc1cc(C)c(Cl)cc1S(=O)(=O)NCc1cccs1 [DNDI0002572626],–,–,–,–,–,> 32,> 32,"IC50 [9]: > 32 µM; IC50 [1, 23]: 25.1 µM; IC50 [1, 24]: 25.4 µM; IC50 [11]: > 32 µM"
CCCCOc1cc(C)c(Cl)cc1S(=O)(=O)NCc1cccs1 [DNDI0002620367],–,–,–,–,–,4.56,> 32,"IC50 [9]: 5.38 µM; IC50 [13]: 22 µM; IC50 [1, 23]: 0.794 µM; IC50 [1, 24]: 0.79 µM; IC50 [2, 25]: 11 µM; CC50 (in vitro [14]): > 50 µM; CC50 at 120 h (in vitro [15]): > 50 µM"
COc1cc(S(=O)(=O)NC(C)c2ccccc2)c(OC)cc1C (stereo not shown) [DNDI0002622495],–,–,–,–,–,> 32,> 32,"IC50 [9]: > 32 µM; IC50 [1, 23]: > 32 µM; IC50 [1, 24]: > 32 µM; IC50 [11]: > 32 µM"
CCCOc1cc(C)c(C)cc1S(=O)(=O)NCC1CCCO1 (stereo not shown) [DNDI0002622936],–,–,–,–,–,> 32,> 32,"IC50 [9]: > 32 µM; IC50 [1, 23]: 25.1 µM; IC50 [1, 24]: 25.4 µM; IC50 [11]: > 32 µM"
Cc1nnc2ccc(S(=O)(=O)N(Cc3cccc(F)c3)c3ccc4c(c3)OCO4)cn12 [DNDI0003321887],–,–,–,–,–,–,–,"IC50 [2, 25]: > 30 µM"
O=S(=O)(c1ccc2nncn2c1)N(Cc1ccccc1F)c1ccc2c(c1)OCO2 [DNDI0003321889],–,–,–,–,–,–,–,"IC50 [2, 25]: > 30 µM"
Cn1cccc(S(=O)(=O)N(Cc2ccc(F)cc2)Cc2ccc(F)cc2)c1=O [DNDI0003371168],–,–,–,–,–,> 64,> 64,"IC50 [1, 26]: 20.4 µM; IC50 [1, 27]: 20.5 µM; CC50 (in vitro [16]): > 64 µM; Papp (in vitro [17]): 18.3 ×10⁻⁶ cm/s; CC50 (in vitro [18]): 62.5 µM; chromatographic logD (physchem): 3.8; microsomal CLint at 0.5 μM (in vitro [3]; [28]): 629 µL/min/mg; microsomal CLint at 0.5 μM (in vitro [4]; [29]): 222 µL/min/mg; IC50 [11]: 24.5 µM"
COc1ncccc1S(=O)(=O)N(Cc1ccc(F)cc1)Cc1ccc(F)cc1 [DNDI0003371169],–,–,–,–,–,> 64,> 64,"IC50 [1, 26]: 12.9 µM; IC50 [1, 27]: 13 µM; CC50 (in vitro [16]): > 64 µM; Papp (in vitro [17]): 2.56 ×10⁻⁶ cm/s; CC50 (in vitro [18]): > 64 µM; chromatographic logD (physchem): 4.4; microsomal CLint at 0.5 μM (in vitro [3]; [28]): 1170 µL/min/mg; microsomal CLint at 0.5 μM (in vitro [4]; [29]): 334 µL/min/mg; IC50 [11]: 44.2 µM"
